Assay: Powder testing of final blends for compression (flow and compression properties)
Format: physicochemical
Experimental: The powder properties of the final blends for compression were evaluated. During compression, excellent powder flow through the hopper was visually observed. The following Table presents the results of powder testing.

flow and compression properties (in words): poor flow properties
Flowability Index (powder): 23.5
SMILES: CC12CC3CC(C)(C1)CC(N)(C3)C2 [memantine, 1-amino-3,5-dimethyladamantane]
